Test systems include NCI/ADR-RES ovarian; RXF 393 renal; UACC-257 melanoma; HL-60(TB) leukemia; SK-MEL-2 melanoma; OVCAR-3 ovarian; SN12C renal; MDA-MB-435; SF-295 CNS; UO-31 renal.
What all share (test): growth of human tumour cells (NCI), 48 h

Each structure is given as a SMILES string. Where “and” joins values, the source holds several entries; their conditions need not be identical. Identical values can stand only once.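 96-well plates; 48 h exposure; 5 concentrations. Endpoints by linear interpolation between flanking doses. Not reached: highest tested concentration assigned. Here, GI50 denotes the concentration required for 50% inhibition of growth. TGI denotes the concentration required for complete inhibition of growth.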

Turning to `CCOC(=O)/C=C(/C(=O)OCC)n1cc(Cl)c(=O)n(CC(=O)OCC)c1=O`, the TGI was 25 µM and 97.7 µM in the assay with NCI/ADR-RES ovarian; 8.55 µM and 2.59 µM in the assay with RXF 393 renal; 25 µM and 57.9 µM in the assay with UACC-257 melanoma; 9.97 µM and 37.2 µM in the assay on HL-60(TB) leukemia; 11.2 µM and 46.3 µM in the assay on SK-MEL-2 melanoma; 14.3 µM and 28.8 µM in the assay on OVCAR-3 ovarian. The TGI was 10.9 µM and 32.7 µM in the assay with SN12C renal; 9.95 µM and 36.6 µM in the assay on MDA-MB-435; > 100 µM in the assay with SF-295 CNS. Also, the GI50 in the assay with RXF 393 renal was 0.298 µM; in the assay with UACC-257 melanoma, 20.7 µM; in the assay with HL-60(TB) leukemia, 11.2 µM; in the assay with SK-MEL-2 melanoma, 26.2 µM; with OVCAR-3 ovarian, 10.5 µM; in the assay with SF-295 CNS, > 100 µM.
With `Cc1ccc2c(c1)C(=O)/C(=C/c1ncc([N+](=O)[O-])n1C)O2`, the GI50 is 2.24 µM in the assay with NCI/ADR-RES ovarian; 1.98 µM in the assay with UACC-257 melanoma; 1.88 µM in the assay with HL-60(TB) leukemia; 1.88 µM in the assay with SK-MEL-2 melanoma; 2.53 µM in the assay on OVCAR-3 ovarian; 1.77 µM with SN12C renal. Moreover, the GI50 in the assay with MDA-MB-435 was 0.371 µM; in the assay on SF-295 CNS, 2.22 µM; in the assay with UO-31 renal it was 1.17 µM. The TGI in the assay with NCI/ADR-RES ovarian stood at 7.04 µM; in the assay on UACC-257 melanoma, 5.65 µM; with HL-60(TB) leukemia, 9.71 µM; with SK-MEL-2 melanoma, 3.54 µM; with OVCAR-3 ovarian, 6.55 µM; in the assay with SN12C renal it was 6.55 µM. Besides, the figures for the TGI in the assay with MDA-MB-435, in the assay with SF-295 CNS and with UO-31 renal were 1.88 µM, 7.82 µM and 5.04 µM, respectively.
Turning to `Cn1cc(-c2cnc3ccc(NC(=O)Nc4ccc(F)c(Br)c4)cc3n2)cn1`, the GI50 in the assay with NCI/ADR-RES ovarian is 2.21 µM; in the assay on RXF 393 renal, 1.73 µM; in the assay with UACC-257 melanoma it was 1.92 µM; in the assay with SK-MEL-2 melanoma, 1.97 µM; in the assay with OVCAR-3 ovarian it was 2 µM; in the assay on SN12C renal, 1.87 µM. For the same molecule, the GI50 in the assay with MDA-MB-435 was 1.81 µM; in the assay with SF-295 CNS, 1.89 µM; in the assay on UO-31 renal, 1.42 µM. Besides, the TGI stood at 5.41 µM in the assay on NCI/ADR-RES ovarian; 4.67 µM in the assay with RXF 393 renal; 4.57 µM with UACC-257 melanoma; 4.13 µM in the assay on SK-MEL-2 melanoma; 5.77 µM in the assay on OVCAR-3 ovarian; 4.79 µM in the assay on SN12C renal. Besides, the TGI in the assay on MDA-MB-435 is 3.95 µM; in the assay on SF-295 CNS, 3.73 µM; in the assay on UO-31 renal it was 3.07 µM.
As for `O=C(O)Cn1ccc(=O)c2ccc([N+](=O)[O-])cc21`, the TGI with NCI/ADR-RES ovarian, with UACC-257 melanoma, in the assay on HL-60(TB) leukemia, in the assay with SK-MEL-2 melanoma, with OVCAR-3 ovarian and with SN12C renal was > 100 µM each time. The TGI in the assay with MDA-MB-435, in the assay with SF-295 CNS and with UO-31 renal was > 100 µM each time.
`COC(=O)CCCCN=Cc1c(O)c(O)c(C(C)C)c2cc(C)c(-c3c(C)cc4c(C(C)C)c(O)c(O)c(C=NCCCCC(=O)OC)c4c3O)c(O)c12`: the GI50 is 2.32 µM in the assay on NCI/ADR-RES ovarian; 0.596 µM in the assay with RXF 393 renal; 1.13 µM with HL-60(TB) leukemia; 1.38 µM in the assay with SK-MEL-2 melanoma; 1.02 µM in the assay on OVCAR-3 ovarian; 1.14 µM in the assay on SN12C renal. Also, the values for the GI50 in the assay on MDA-MB-435, in the assay on SF-295 CNS and with UO-31 renal were 1.46 µM, 0.83 µM and 0.923 µM, respectively. Further, the TGI in the assay on NCI/ADR-RES ovarian is > 32.5 µM; with RXF 393 renal it was 3.18 µM; in the assay on HL-60(TB) leukemia, 22.8 µM; in the assay on SK-MEL-2 melanoma, > 32.5 µM; in the assay with OVCAR-3 ovarian, > 32.5 µM; with SN12C renal, > 32.5 µM. Moreover, the TGI in the assay on MDA-MB-435 was > 32.5 µM; in the assay with SF-295 CNS, 7.92 µM; in the assay with UO-31 renal, 26.5 µM.
Regarding `COc1ccc(/C(=C2\O[C@@H]([C@H]3COC(C)(C)O3)[C@H]3OC(C)(C)O[C@@H]23)c2cc(OC)c(OC)c(OC)c2)cc1O`, the GI50 with NCI/ADR-RES ovarian was 2.52 µM; with RXF 393 renal, 2.12 µM; in the assay with UACC-257 melanoma, > 100 µM; with HL-60(TB) leukemia it was 3.39 µM; in the assay on SK-MEL-2 melanoma, 57.9 µM; with OVCAR-3 ovarian, 2.38 µM. In addition, the GI50 in the assay with SN12C renal is 5.62 µM; in the assay with SF-295 CNS it was 7 µM; in the assay with UO-31 renal it was 7.53 µM. Also, the TGI with NCI/ADR-RES ovarian was 6.91 µM; in the assay with RXF 393 renal it was 5.89 µM; in the assay with UACC-257 melanoma, > 100 µM; in the assay with HL-60(TB) leukemia, 23.3 µM; in the assay on SK-MEL-2 melanoma, > 100 µM; in the assay with OVCAR-3 ovarian, 5.34 µM. The figures for the TGI with SN12C renal, in the assay on SF-295 CNS and in the assay with UO-31 renal were > 100 µM, 37.3 µM and 77.8 µM, respectively.
As to `COc1cc(/C=C/c2cc(/C=C/c3ccc(O)c(OC)c3)n(-c3ccccc3)n2)ccc1O`, the GI50 in the assay on NCI/ADR-RES ovarian was 0.0874 µM; with RXF 393 renal, 0.258 µM; in the assay with UACC-257 melanoma, 1.22 µM; with HL-60(TB) leukemia, 0.271 µM; in the assay on SK-MEL-2 melanoma, 0.266 µM; in the assay on OVCAR-3 ovarian, 0.266 µM. For the same molecule, the results for the GI50 with SN12C renal, with MDA-MB-435 and in the assay with UO-31 renal were 0.313 µM, 0.0415 µM and 0.287 µM, respectively. In addition, the TGI in the assay with NCI/ADR-RES ovarian was determined as 3.85 µM; with RXF 393 renal it was 0.888 µM; with UACC-257 melanoma, 4.72 µM; in the assay on HL-60(TB) leukemia it was 0.774 µM; in the assay on SK-MEL-2 melanoma, 2.03 µM; in the assay with OVCAR-3 ovarian it was 0.938 µM. The TGI in the assay with SN12C renal is 2.2 µM; in the assay with MDA-MB-435 it was 0.191 µM; in the assay with UO-31 renal, 1.53 µM.
On to `O=C1CNCCCN2CCN(CCCNCC(=O)Nc3ccc(cc3)S(=O)(=O)c3ccc(cc3)NC(=O)CNCCCN3CCN(CCCNCC(=O)Nc4ccc(cc4)S(=O)(=O)c4ccc(cc4)N1)CC3)CC2`, for which the TGI in the assay with NCI/ADR-RES ovarian was > 100 µM; with RXF 393 renal, > 70.2 µM; in the assay with UACC-257 melanoma, 32.7 µM; in the assay on SK-MEL-2 melanoma it was 90.1 µM; in the assay on OVCAR-3 ovarian it was > 89.4 µM; in the assay with SN12C renal, > 80.9 µM. In addition, the TGI in the assay on MDA-MB-435 is > 58.8 µM; in the assay with SF-295 CNS, > 62.6 µM; in the assay with UO-31 renal, > 100 µM.
Regarding `CN(C)CCNc1cc(-c2ccccc2)nc2ccccc12`, the GI50 in the assay with NCI/ADR-RES ovarian is 9.11 µM; with UACC-257 melanoma, 11.5 µM; in the assay with HL-60(TB) leukemia, 4.58 µM; in the assay on SK-MEL-2 melanoma, 11.3 µM; with OVCAR-3 ovarian it was 8.9 µM; with SN12C renal, 6.55 µM. The GI50 in the assay on MDA-MB-435 is 6.12 µM; in the assay with SF-295 CNS it was 7.85 µM; with UO-31 renal it was 4.01 µM. Moreover, the TGI in the assay with NCI/ADR-RES ovarian was found to be 53.3 µM; in the assay on UACC-257 melanoma, 26.7 µM; in the assay on HL-60(TB) leukemia it was 22.3 µM; in the assay with SK-MEL-2 melanoma it was 24.9 µM; with OVCAR-3 ovarian, 33.1 µM; with SN12C renal it was 44.1 µM. Further, the figures for the TGI in the assay on MDA-MB-435, in the assay on SF-295 CNS and in the assay with UO-31 renal were 20.6 µM, 46.9 µM and 26.9 µM, respectively.

These data come from PubChem BioAssay (NCI).
